In US20130303575A1, “ADMINISTRATION OF AN INHIBITOR OF HDAC” (priority 2007, published 2013):
Entries after “also recorded” stand apart in the source; their conditions may differ. Marks after values point to notes of the source that are not given here.

Assay: Safety, DLT, MTD and adverse events in patients with advanced solid tumors or lymphoma (Example 2)
Type: in vivo
From the text: DLT was defined as first course adverse events […] hematologic toxicity. The MTD was defined as one dose level below the dose at which […] of six patients experienced DLT.
Dose reduction by one level was applied for the occurrence of either grade 3 nonhematologic toxicity, grade 4 hematologic toxicity, persistent (≦2 weeks) grade 2 nonhematologic toxicity, or per the investigator's assessment. […] No limitation for the number of dose reductions was chosen.
At study entry, history, physical examination, laboratory studies (CBC, electrolytes, creatinine, blood urea nitrogen, total and direct bilirubin, ALT, AST, alkaline phosphatase, uric acid, prothrombin time, partial thromboplastin time, and urinalysis), computed tomography scan and chest x-ray and ECG were performed. Clinical assessments, including a physical examination and adverse event evaluation, were conducted at each follow-up. Adverse events were graded by the NCI Common Toxicity Criteria (version 2.0). Computed tomography scans and staging was performed every 6 weeks for the q14-day schedule. Disease-specific staging techniques, such as bone marrow aspirate and biopsy, flow cytometry, cutaneous lesion photography, or bone scan were used as indicated. Response evaluations used the Response Evaluation Criteria in Solid Tumors and the Cheson criteria for lymphoma. Multiple-gated acquisition (MUGA) scans were obtained on the q14-day schedule at base line, before course 2 and at each restaging. Laboratory studies (CBC with differential, chemistry 20, prothrombin time and […] thromboplastin time) were performed on days 1, 3, 5, 7 and repeated weakly.

Nc1ccccc1NC(=O)c1ccc(CNC(=O)OCc2cccnc2)cc1 [SNDX-275, N-(2-aminophenyl) 4-[N-(pyrid-3-yl)methyloxycarbonylaminomethyl]benzamide]
DLTs (Every 14 days, 2 mg/m^2): 0 | No. of Patients With First Course DLT (Every 14 days, 2 mg/m^2): 0 | DLTs (Every 14 days, 4 mg/m^2): 0 | No. of Patients With First Course DLT (Every 14 days, 4 mg/m^2): 0 | No. of Patients With First Course DLT (Every 14 days, 6 mg/m^2): 1 | DLTs (Every 14 days, 6 mg/m^2, anorexia, nausea, and vomiting): 3† | DLTs (Every 14 days, 8 mg/m^2): 0 | No. of Patients With First Course DLT (Every 14 days, 8 mg/m^2): 0 | No. of Patients With First Course DLT (Every 14 days, 10 mg/m^2): 1 | DLTs (Every 14 days, 10 mg/m^2, anorexia, nausea, and vomiting): 3† | No. of Patients With First Course DLT (Every 14 days, 12 mg/m^2): 2 | DLTs (Every 14 days, 12 mg/m^2, anorexia, nausea, vomiting, and fatigue): 7‡ | No. of Patients With First Course DLT (Every day x 28/42 days, 2 mg/m^2, 2 patients): 2 | MTD (daily schedule (once-a-day×28 every 6 weeks), first dose level 2 mg/m^2): exceeded at the first dose level | Abdominal pain: % (All Grades) (human, in vivo): 7% | Anemia: No. of Patients (All Grades) (human, in vivo): 8 | Anorexia: % (All Grades) (human, in vivo): 36% | Anorexia: Grade 3 (human, in vivo): 4 | Anorexia: No. of Patients (All Grades) (human, in vivo): 10 | Bilirutin: % (All Grades) (human, in vivo): 14% | Bilirutin: No. of Patients (All Grades) (human, in vivo): 4 | Chest pain: % (All Grades) (human, in vivo): 7% | Chest pain: No. of Patients (All Grades) (human, in vivo): 2 | Constipation: % (All Grades) (human, in vivo): 7% | Constipation: No. of Patients (All Grades) (human, in vivo): 2 | Hypermagnesemia: No. of Patients (All Grades) (human, in vivo): 2 | Hypoalbuminemia: % (All Grades) (human, in vivo): 64% | Hypoalbuminemia: No. of Patients (All Grades) (human, in vivo): 18 | Hypocalcemia: % (All Grades) (human, in vivo): 21% | Hypocalcemia: No. of Patients (All Grades) (human, in vivo): 6 | Hypokalemia: % (All Grades) (human, in vivo): 4% | Hypokalemia: No. of Patients (All Grades) (human, in vivo): 1 | Hyponatremia: % (All Grades) (human, in vivo): 25% | Hyponatremia: No. of Patients (All Grades) (human, in vivo): 7 | Infection w/o neutropenia: % (All Grades) (human, in vivo): 7% | Infection w/o neutropenia: Grade 3 (human, in vivo): 0 | Infection w/o neutropenia: No. of Patients (All Grades) (human, in vivo): 2 | Leucopenia: % (All Grades) (human, in vivo): 21% | Leucopenia: No. of Patients (All Grades) (human, in vivo): 6 | Libido: % (All Grades) (human, in vivo): 4% | Libido: Grade 3 (human, in vivo): 0 | Libido: No. of Patients (All Grades) (human, in vivo): 1 | Myalgia: Grade 3 (human, in vivo): 0 | Myalgia: No. of Patients (All Grades) (human, in vivo): 1 | Nail changes: % (All Grades) (human, in vivo): 4% | Nail changes: Grade 3 (human, in vivo): 0 | Nail changes: No. of Patients (All Grades) (human, in vivo): 1 | Nausea: % (All Grades) (human, in vivo): 64% | Nausea: Grade 3 (human, in vivo): 4 | Nausea: No. of Patients (All Grades) (human, in vivo): 18 | Neurosensory deficits: % (All Grades) (human, in vivo): 7% | Neurosensory deficits: No. of Patients (All Grades) (human, in vivo): 2 | Sinus Tachycardia: No. of Patients (All Grades) (human, in vivo): 1 | Stomatitis: % (All Grades) (human, in vivo): 4% | Stomatitis: No. of Patients (All Grades) (human, in vivo): 1 | Sweating: % (All Grades) (human, in vivo): 4% | Sweating: Grade 3 (human, in vivo): 0 | Sweating: No. of Patients (All Grades) (human, in vivo): 1 | Taste disturbance: % (All Grades) (human, in vivo): 29% | Taste disturbance: Grade 3 (human, in vivo): 0 | Taste disturbance: No. of Patients (All Grades) (human, in vivo): 8 | tolerability (human, in vivo, po): intolerable | MTD (and recommended phase II dose) (q14-day schedule): 10 mg/m^2 | SNDX-275-related first course grade 4 adverse events (q14-day schedule): no SNDX-275-related first course grade 4 adverse events | dose-limiting toxicities (q14-day schedule): nausea, vomiting, anorexia and fatigue; also recorded: anorexia, nausea, vomiting and fatigue | tolerability (q14-day schedule): reasonably well-tolerated | Abdominal pain: No. of Patients (All Grades) (q14-day schedule, first course): 2 | Alkaline phosphatase: % (All Grades) (q14-day schedule, first course): 4% | Alkaline phosphatase: No. of Patients (All Grades) (q14-day schedule, first course): 1 | Allergic reaction: % (All Grades) (q14-day schedule, first course): 4% | Allergic reaction: Grade 3 (q14-day schedule, first course): 0 | Allergic reaction: No. of Patients (All Grades) (q14-day schedule, first course): 1 | Anemia: % (All Grades) (q14-day schedule, first course): 29% | Cough: % (All Grades) (q14-day schedule, first course): 4% | Cough: No. of Patients (All Grades) (q14-day schedule, first course): 1 | Creatinine: % (All Grades) (q14-day schedule, first course): 7% | Creatinine: No. of Patients (All Grades) (q14-day schedule, first course): 2 | Dehydration: % (All Grades) (q14-day schedule, first course): 11% | Dehydration: Grade 3 (q14-day schedule, first course): 0 | Dehydration: No. of Patients (All Grades) (q14-day schedule, first course): 3 | Depression: % (All Grades) (q14-day schedule, first course): 4% | Depression: Grade 3 (q14-day schedule, first course): 0 | Depression: No. of Patients (All Grades) (q14-day schedule, first course): 1 | Diarrhea: % (All Grades) (q14-day schedule, first course): 7% | Diarrhea: No. of Patients (All Grades) (q14-day schedule, first course): 2 | Dyspepsia: % (All Grades) (q14-day schedule, first course): 21% | Dyspepsia: No. of Patients (All Grades) (q14-day schedule, first course): 6 | Fatigue: % (All Grades) (q14-day schedule, first course): 54% | Fatigue: Grade 3 (q14-day schedule, first course): 1 | Fatigue: No. of Patients (All Grades) (q14-day schedule, first course): 15 | Fever: % (All Grades) (q14-day schedule, first course): 4% | Fever: Grade 3 (q14-day schedule, first course): 0 | Fever: No. of Patients (All Grades) (q14-day schedule, first course): 1 | Flatulence: % (All Grades) (q14-day schedule, first course): 11% | Flatulence: No. of Patients (All Grades) (q14-day schedule, first course): 3 | GI other: % (All Grades) (q14-day schedule, first course): 7% | GI other: No. of Patients (All Grades) (q14-day schedule, first course): 2 | Headache: % (All Grades) (q14-day schedule, first course): 50% | Headache: Grade 3 (q14-day schedule, first course): 0 | Headache: No. of Patients (All Grades) (q14-day schedule, first course): 14 | Hyperglycemia: % (All Grades) (q14-day schedule, first course): 11% | Hyperglycemia: No. of Patients (All Grades) (q14-day schedule, first course): 3 | Hypermagnesemia: % (All Grades) (q14-day schedule, first course): 7% | Lymphopenia: % (All Grades) (q14-day schedule, first course): 18% | Lymphopenia: No. of Patients (All Grades) (q14-day schedule, first course): 5 | Middle ear infection: % (All Grades) (q14-day schedule, first course): 4% | Middle ear infection: Grade 3 (q14-day schedule, first course): 0 | Middle ear infection: No. of Patients (All Grades) (q14-day schedule, first course): 1 | Muscle weakness: % (All Grades) (q14-day schedule, first course): 4% | Muscle weakness: Grade 3 (q14-day schedule, first course): 0 | Muscle weakness: No. of Patients (All Grades) (q14-day schedule, first course): 1 | Myalgia: % (All Grades) (q14-day schedule, first course): 4% | Neutropenia: % (All Grades) (q14-day schedule, first course): 25% | Neutropenia: No. of Patients (All Grades) (q14-day schedule, first course): 7 | Pain other: % (All Grades) (q14-day schedule, first course): 4% | Pain other: No. of Patients (All Grades) (q14-day schedule, first course): 1 | Pleuretic pain: % (All Grades) (q14-day schedule, first course): 4% | Pleuretic pain: No. of Patients (All Grades) (q14-day schedule, first course): 1 | Rhinitis: % (All Grades) (q14-day schedule, first course): 4% | Rhinitis: No. of Patients (All Grades) (q14-day schedule, first course): 1 | Sinus Tachycardia: % (All Grades) (q14-day schedule, first course): 3% | Thrombooytopenia: % (All Grades) (q14-day schedule, first course): 36% | Thrombooytopenia: No. of Patients (All Grades) (q14-day schedule, first course): 10 | Tremors: % (All Grades) (q14-day schedule, first course): 4% | Tremors: No. of Patients (All Grades) (q14-day schedule, first course): 1 | Urinary electrolyte wasting: % (All Grades) (q14-day schedule, first course): 11% | Urinary electrolyte wasting: No. of Patients (All Grades) (q14-day schedule, first course): 3 | Vomiting: % (All Grades) (q14-day schedule, first course): 39% | Vomiting: Grade 3 (q14-day schedule, first course): 4 | Vomiting: No. of Patients (All Grades) (q14-day schedule, first course): 11
